{"source": "patent US20240279217A1", "about": "“Heterocyclic compounds for the treatment of tuberculosis” (TECNIMEDE - SOCIEDADE TÉCNICO-MEDICINAL, SA, priority 2021, published 2024)", "key": {"[1]": {"test": "Metabolic stability assay in liver microsomes", "type": "in vitro ADME", "conditions": "human, pH 7.4, 37° C., 60 minutes", "description": "In an embodiment, metabolic stability assay was carried out. Metabolic stability was assessed by incubating test compounds in 96-well plates in 5 aliquots of 40 μL each (one for each time point) in liver microsomal incubation medium. This medium contained MgCl2 (3.3 mM), NADPH-cofactor system (NADPH (3 mM), glucose-6-phosphate (5.3 mM), glucose-6-phosphate dehydrogenase (0.67 units/ml)) and 0.42 mg of liver microsomal protein per ml in phosphate buffer (100 mM, pH 7.4). Control incubations were performed replacing the NADPH-cofactor system by phosphate buffer. Test compounds (1 μM, final solvent concentration 1.6%) were incubated with microsomes at 37° C. and 100 rpm orbital shaking.\nImipramine and Propranolol were incubated in parallel as reference compounds. Each reaction was performed in duplicate. Five time points over a duration 60 minutes were analysed. The reactions were stopped by adding 12 volumes of 90% acetonitrile in water to incubation aliquots, followed by protein sedimentation by centrifugation. Supernatants were analysed using a Shimadzu VP HPLC system with a reverse phase HPLC column, coupled with tandem mass spectrometer API 3000 (PE Sciex). […] The elimination constant (kel), half-life (t1/2) and intrinsic clearance (Clint) were determined in plot of In(AUC) versus time, using linear regression analysis for each test and reference compound."}, "[2]": {"test": "pKa determination by potentiometric titration", "type": "physicochemical", "conditions": "acidified MeOH-water (1:4) solution of NaCl, 25° C.", "description": "In an embodiment, pKa determination assay was carried out. The tendency of a compound to donate a proton is measured as its acid ionization constant (dissociation constant), or Ka. A more practical scale of representing acidity is pKa which is the negative logarithm of the Ka (pKa=−log Ka). The pKa determinations of the test compounds and 3 reference compounds were assessed by potentiometric titration, in accordance with the technical protocols for pKa measurement provided by Pion Inc. and Sirius Analytical Inc. Briefly, compounds pKa were determined by pH-metric method based on potentiometric acid-base titration at 25° C. The test and reference compounds were dissolved in acidified MeOH-water (1:4) solution of NaCl (150 mM, pH 2) and slowly titrated with 10 mM NaOH MeOH-water (1:4) solution. The recorded pH of the solution as a function of NaOH volume used during the titration were used to construct the titration curve. Titration of acidified NaCl solution in absence of any compound was used for blank plotting. Buffering capacity was calculated in each point of titration curve as the ratio of the NaOH flow (constant) to the pH rise velocity. The pKa value is determined from resulting plot of buffering capacity versus pH as the maximum of buffering capacity. pH-Metric method allows to measure pKa's in range between 2 and 12. […]"}, "PAMPA assay, GIT model": {"test": "PAMPA assay, GIT model", "type": "in vitro ADME", "conditions": "log Papp; pH 7.4, 50 μM, 4 hours, room temperature", "description": "In an embodiment, PAMPA assay was carried. All steps of PAMPA assay were carried out according to pION Inc. PAMPA Explorer™ Manual. The main principle of the assay is the compound incubation in the donor chamber with aqueous buffer, which is separated from the acceptor chamber, with another buffer, by a phospholipid or hydrocarbon membrane fixed on a filter support. After the test, concentrations in the corresponding donor and acceptor chambers are measured and permeability is calculated. GIT model was simulated using GIT-0 phospholipid mix. Verapamil and quinidine (high permeability) and ranitidine (low permeability) were used as reference compounds. All compounds were tested in quadruplicates. […] After incubation, aliquots from both chambers were transferred to optic UV-Vis plates and absorbance was recorded in the range of 202-500 nm in 4 nm steps. Compounds with low UV-Vis signal were evaluated by LC-MS/MS (using a Shimadzu VP HPLC system with a reverse phase HPLC column, coupled with tandem mass spectrometer API 3000 (PE Sciex) and TurbolonSpray ion source used in positive ion mode; acquisition and analysis of the data were performed using Analyst 1.5.2 software (PE Sciex)).\nThe apparent permeability coefficient was calculated using the formula below. […]\nThe apparent permeability coefficient was calculated for each compound (log Papp)."}, "[3]": {"test": "Distribution coefficient (Log D) determination, octanol/PBS pH 7.4", "type": "physicochemical", "conditions": "octanol / phosphate buffer saline pH 7.4", "description": "In an embodiment, distribution coefficient (Log D) determination assay was carried out. Test compounds were incubated in Eppendorf-type polypropylene microtubes in triplicates: a 5 μL aliquot of a 10 mM DMSO stock of each test compound were added into the previously mutually saturated mixture containing 500 μL of phosphate buffer saline (pH 7.4) and 500 μL of octanol. The solution was allowed to mix in a rotator for 1 hour at 30 rpm. Phase separation was assured by centrifugation. The octanol phase was diluted 100-fold with 40% acetonitrile in water for analysis, and aqueous phase was analysed without dilution. Mebendazole was used as a reference compound. All samples (both phases) were analysed in a Shimadzu VP HPLC system with a reverse phase column, coupled with tandem mass spectrometer API 3000 (PE Sciex). The TurbolonSpray ion source was used in positive ion mode. Acquisition and analysis of the data were performed using Analyst 1.5.2 software. Distribution coefficients of the tested compounds were calculated as the logarithm of the partition ratios (D) in both solvents, according to the equation below.\n[formula] • where: So—peak area of the compound in octanol phase • Sp—peak area of the compound in phosphate buffer saline phase"}, "[4]": {"test_system": "H37Rv M. tuberculosis (strain ATCC 25618)", "test": "Mycobacterium tuberculosis susceptibility assay REMA (resazurin microtiter assay)", "type": "cell-based"}}, "data": [{"molecule": "COc1cccc2ccc(N3CCC(c4nc(-c5ccc(OC(F)(F)F)cc5)no4)CC3)nc12", "note": "[Compound 3, 5-(1-(8-methoxyquinolin-2-yl)piperidin-4-yl)-3-(4-(trifluoromethoxy)phenyl)-1,2,4-oxadiazole]", "values": [{"measurement": "half-life at 1 μM", "setting": "[1]", "value": 3.03, "unit": "h"}, {"measurement": "microsomal CLint at 1 μM", "setting": "[1]", "value": 9.2, "unit": "µL/min/mg"}, {"measurement": "pKa", "setting": "[2]", "value": 3.9}, {"measurement": "GIT PAMPA", "setting": "PAMPA assay, GIT model", "value": "−4.8 log[10^−6 cm/s]"}, {"measurement": "logD", "setting": "[3]", "value": 5.34}, {"measurement": "MIC", "setting": "[4]; Mycobacterium tuberculosis, 144 h, read-out: REMA MIC", "value": "7.8 to 15.6", "unit": "µM"}, {"measurement": "REMA MIC", "setting": "[4]; Table 2, MTB growth REMA, H37Rv, Middlebrook 7H9, 6 days at 37° C.", "value": "+++ (7.8-15.6)"}]}]}
